Key:
FaDu cells [1] = test: in vitro cell viability of FaDu cells; format: cell-based, human
Description: (§1) In the following examples, FaDu cells are used in cell viability tests and colony forming assays. FaDu cells (ATCC HTB-43) is a human head-and-neck cell line with squamous phenotype. FaDu cells used in the following examples are cultured in DMEM medium supplemented with 10% fetal bovine serum (FBS) and 1% penicillin/streptomycin, in a humidified incubator maintained at 37° C. and 5% CO2.
Referring to FIG. 4, an in vitro cell viability chart of FaDu cells when treated with BrdU is provided in accordance with an exemplary embodiment of the present disclosure. FaDu cells are treated with different dosages of BrdU for 24 hours and then FaDu cells are analyzed daily for cell viability. FaDu cells are derived from pharynx squamous cell carcinoma of human, and are resistant to radiation. 3×10^5 FaDu cells are seeded in 6-cm-plates. After 24 hours, different dosages of BrdU are added into the culture medium and incubated with the FaDu cells for another 24 hours.
Referring to FIG. 5, an in vitro cell viability chart of FaDu cells when treated with IdU is provided in accordance with an exemplary embodiment of the present disclosure. FaDu cells are treated with different dosages of IdU for 24 hours and then FaDu cells are analyzed for cell viability. FaDu cells are seeded in plate and treated with IdU by similar experiment procedures with FIG. 4.
Referring to FIG. 6, an in vitro viability chart of FaDu cells when irradiated by NR is provided in accordance with an exemplary embodiment of the present disclosure. FaDu cells are treated with different radiation doses of NanoRay radiation (NR). FaDu cells are trypsinized and collected by centrifugation. The centrifuged FaDu cells are then re-suspended in PBS in a 1.5-ml tube with 5×10^4 cells in 20 μL. The tube containing centrifuged FaDu cells are then subjected to different radiation doses of NR. […] From FIGS. 4, 5 and 6, it is concluded that an optimized dosage for BrdU and IdU for in vivo experiments would be 10 μM, and the optimized radiation dose for NR is within 4 Gy.

FaDu cells [2] = test: colony forming assay of FaDu cells; format: cell-based, human
Description: as §1
Referring to FIGS. 9A-C, an in vitro cell viability chart of FaDu cells when treated with BrdU alone, NR alone, and BrdU and NR, is provided in accordance with an exemplary embodiment of the present disclosure. NR treatments in FIGS. 9A, 9B, and 9C are similar with the experiment procedures for FIG. 6. In samples where FaDu cells are treated with BrdU and NR, FaDu cells are incubated with BrdU for 24 hours before irradiated with NR. Referring to FIG. 9B, a colony forming assay result of FaDu cells after the treatments described in […], is provided in accordance with an exemplary embodiment of the present disclosure. The colony forming assay in FIG. 9B are proceeded as following: FaDu cells treated by different regimens are grouped and seeded in 6-well-plates with 1000 cells in each of the well and cultured for 14 days; the culture medium was replaced every 3 to 4 days; in the end of the experiment, the cells are washed twice with PBS and fixed with 4% paraformaldehyde for 15 minutes and stained with 0.1% crystal violet. Referring to FIG. 9C, a quantitative result of the colony forming assay in FIG. 9B is provided in accordance with an exemplary embodiment of the present disclosure. In FIG. 9C, the results of the colony forming assay are quantified by microscopic examination by stereomicroscope.

FaDu cells [3] = test: flow cytometry analysis of BrdU/IdU DNA incorporation in FaDu cells; format: cell-based, human; details: 24 hours
Description: Referring to FIG. 7A, a flow cytometry analysis of FaDu cells without BrdU treatment is provided in accordance with an exemplary embodiment of the present disclosure. FaDu cells are analyzed by flow cytometry using BrdU Flow Kits (BD Pharmingen), in absence of BrdU. FaDu cells are trypsinized, washed, fixed, permeablized, blocked, and then treated with DNase I (5 U/10^6 cells/100 μL) for 1 hour at 37° C. FaDu cells are then hybridized with anti-BrdU antibodies for 1 hour at room temperature. After several washes, FaDu cells are analyzed for fluorescent signals with LSR II Analytic Flow Cytometer (BD Biosciences). […] Referring to FIGS. 7B-D, flow cytometry analyses of FaDu cells when treated with BrdU are provided in accordance with an exemplary embodiment of the present disclosure. In FIGS. 7B-D, FaDu cells are analyzed by flow cytometry with the same experiment procedures for FIG. 7A. FaDu cells in FIGS. 7B, 7C, and 7D are respectively treated with 0.5 μM BrdU, 1 μM BrdU, and 10 μM BrdU for 24 hours. […] The DNA incorporation efficiency of BrdU is 1 μM to more than 90% of FaDu cells, therefore 1 μM would be used in the subsequent experiment as an optimized dosage of BrdU. Referring to FIG. 8A, a flow cytometry analysis of FaDu cells without IdU treatment is provided in accordance with an exemplary embodiment of the present disclosure. FaDu cells are analyzed by flow cytometry using BrdU Flow Kits (BD Pharmingen), in absence of IdU. FaDu cells are treated with similar experiment procedures as in FIG. 7A, but anti-BrdU antibodies are replaced with anti-IdU antibodies. For the detection of IdU-incorporated cells, FaDu cells being treated by anti-IdU antibodies are then hybridized with a secondary antibody conjugated by proper fluorescent dye for 1 hour at room temperature. […] Referring to FIGS. 8B-D, flow cytometry analyses of FaDu cells when treated with IdU are provided in accordance with an exemplary embodiment of the present disclosure. FaDu cells are analyzed by flow cytometry with similar experiment procedures as in 7A. […] The DNA incorporation efficiency of IdU is 10 μM to more than 90% of FaDu cells, therefore 10 μM would be used in the subsequent experiment as an optimized dosage of IdU.

FaDu cells [4] = test: in vitro cell viability of FaDu cells; format: cell-based, human; details: for synergy of combination with RS2000 versus RS2000 alone: conventional X-ray RS2000, FaDu cells
CASPASE-3 = test: immunohistochemical (IHC) examination of subcutaneous FaDu tumor cells; format: in vivo, mouse; details: 1 day after treatment
Description: One day after the tumorigenic mouse are treated with IdU, or the combination of IdU and 4.5 Gy of NR/RS2000, the subcutaneous FaDu tumor cells are subjected to immunohistochemical (IHC) examination. […] The control group in FIGS. 15A-15F or FIGS. 16A-16B is the subcutaneous FaDu tumor cells without any treatment. […] CASPASE-3 is directly involved in apoptosis, therefore the combination of IdU and NR is proven to induce tumor growth inhibition.

[5] = 10 μM IdU combined with 1 Gy of 33 keV NR

**Q.** Which “cytotoxicity of the combination with NR” value (FaDu cells [1]) does the source give for `O=c1[nH]c(=O)n([C@H]2C[C@H](O)[C@@H](CO)O2)cc1Br` [BrdU, bromodeoxyuridine] here?
**A.** strong synergistic cytotoxicity

**Q.** What about the toxicity (FaDu cells [1]; FaDu cells, 1 μM BrdU) of the same compound?
**A.** almost no toxicity

**Q.** What about the colony forming inhibition (FaDu cells [2]; 1 μM BrdU combined with 1 Gy of 14 keV NR) of the same compound?
**A.** 57.5%

**Q.** What about the FaDu cells labeled (FaDu cells [3]; 0.5 μM BrdU) of the same compound?
**A.** about 83%

**Q.** And the FaDu cells labeled (FaDu cells [3]; more than 1 μM of BrdU)?
**A.** more than 90%

**Q.** What about the cell viability (FaDu cells [4]; 1 μM BrdU and 1Gy of RS2000 (conventional X-ray)) of the same compound?
**A.** lower cell viability

**Q.** And the “synergy of combination with RS2000 versus RS2000 alone” value (FaDu cells [4])?
**A.** does not have synergistic effects

**Q.** What does the source list for `O=c1[nH]c(=O)n([C@H]2C[C@H](O)[C@@H](CO)O2)cc1I` [IdU, iododeoxyuridine]?
**A.** cytotoxicity of the combination with NR (FaDu cells [1]): strong synergistic cytotoxicity; cell viability versus IdU or NR alone (FaDu cells [1]; [5]): lower; colony forming inhibition versus IdU or NR alone (FaDu cells [2]; [5]): higher; FaDu cells labeled (FaDu cells [3]; IdU 0.5 μM as printed (FIG. 8B)): about 84%; FaDu cells labeled (FaDu cells [3]; more than 10 μM of IdU): more than 90%; apoptotic cells (IHC, qualitative) (CASPASE-3; IdU and 4.5 Gy of NR, versus other groups): more apoptotic cells; CASPASE-3 expression in the tumor cells (IHC, quantitative) (CASPASE-3; IdU and NR, versus other treatments): more pronounced CASPASE-3 expression; synergy of combination with RS2000 versus RS2000 alone (FaDu cells [4]): does not have synergistic effects

From US20210401867A1, “PHOTOSENSITIZERS AND METHOD OF TREATING CANCER USING THE SAME” (Cheng-Wen Wu, priority 2018, published 2021)
